In PMC10475101, “Selective steroidogenic cytochrome P450 haem iron ligation by steroid-derived isonitriles” (Communications Chemistry, 2023):
Values joined by “and” are separate entries in the source; they are usually repeats but may differ in a detail not shown here. Equal entries are not always repeated. “Also recorded” adds a separate entry of the source.

What was measured:
CYP2D6 = target: T1, CYP2D6 (Homo sapiens, UniProt P10635, L230D/L231R); assay: Reduction and reoxidation assay
T1 construct: made in house
Method: (§1) Reduction of the 1-bound P450 complex was observed by taking a baseline absorbance reading from 400 to 500 nm using a UV-visible scanning spectrophotometer, of a 1 cm quartz cuvette containing 1 µM P450, with compound 1 at a saturating concentration (i.e., ≥ concentration needed to reach ΔAmax), in binding assay buffer (100 mM potassium phosphate buffer (pH 7.4), 20% glycerol, and 100 mM sodium chloride). A small quantity of sodium dithionite (spatula tip-full) was then added to the cuvette, and the spectra were recorded periodically over time to observe the formation of peaks indicating the reduction (~426 and 456 nm) and subsequent reoxidation (~435 nm) of the complex. The total time course for Fig. 6B was 103 min and 37 s. Numerical data used to generate graphs in Fig. 6 are provided in Supplementary Data 3 in Excel format.
(§2) 185 S2) Ligand binding and inhibition assays
(§3) 186 Reduction and reoxidation assays. Reduction of the isonitrile-bound P450 complex was observed by taking
(§4) 187 a baseline absorbance reading from 400 to 500 nm using a UV-visible scanning spectrophotometer, of a 1cm
(§5) 188 quartz cuvette containing 1 µM P450, with the selected isonitrile compound at a saturating concentration
(§6) 189 (i.e., ≥ concentration needed to reach ΔAmax), in the same buffer used for binding assays (100 mM potassium
(§7) 190 phosphate buffer (pH 7.4), 20% glycerol, and 100 mM sodium chloride). A small quantity of sodium dithionite
(§8) 191 (spatula tip-full) was then added to the cuvette, and the spectra were recorded periodically over time to
(§9) 192 observe the formation of peaks indicating the reduction (~426 and 456 nm) and subsequent reoxidation
(§10) 193 (~435 nm) of the complex. The total time course for Figure 6B was 103 minutes and 37 seconds. […]
(§11) 217 initiated by adding NADPH to a final concentration of 1 mM. After 20 minutes, metabolism was quenched
(§12) 218 by adding 50 µL acetonitrile and placed on ice. The reaction vials were centrifuged at 5000 xg for 5 minutes
(§13) 219 to pellet the precipitated protein, then the supernatant was injected onto a C18 column (Phenomenex, Luna,
(§14) 220 50 x 4.6 mm) for HPLC. Separation on HPLC was obtained using a mobile phase of 45%/55% water/methanol
(§15) 221 for 40 minutes. A standard curve of known product concentrations was used to convert the area under the
(§16) 222 curve to the amount of product produced.
(§17) 224 S3) Crystallization of 1-CYP17A1 complex and X-ray diffraction
(§18) 225 Protein Crystallization and Structure Determination. CYP17A1 was saturated with 3β-formyl-5α
(§19) 226 pregnanolone-20(R)-isonitrile (verified by 430 nm Soret peak) and prepared for crystallization via hanging

CYP17A1 [1] = target: T2, CYP17A1 (Homo sapiens, UniProt P05093); assay: Reduction and reoxidation assay
T2 construct: made in house
T2 sequence (P05093 1-508): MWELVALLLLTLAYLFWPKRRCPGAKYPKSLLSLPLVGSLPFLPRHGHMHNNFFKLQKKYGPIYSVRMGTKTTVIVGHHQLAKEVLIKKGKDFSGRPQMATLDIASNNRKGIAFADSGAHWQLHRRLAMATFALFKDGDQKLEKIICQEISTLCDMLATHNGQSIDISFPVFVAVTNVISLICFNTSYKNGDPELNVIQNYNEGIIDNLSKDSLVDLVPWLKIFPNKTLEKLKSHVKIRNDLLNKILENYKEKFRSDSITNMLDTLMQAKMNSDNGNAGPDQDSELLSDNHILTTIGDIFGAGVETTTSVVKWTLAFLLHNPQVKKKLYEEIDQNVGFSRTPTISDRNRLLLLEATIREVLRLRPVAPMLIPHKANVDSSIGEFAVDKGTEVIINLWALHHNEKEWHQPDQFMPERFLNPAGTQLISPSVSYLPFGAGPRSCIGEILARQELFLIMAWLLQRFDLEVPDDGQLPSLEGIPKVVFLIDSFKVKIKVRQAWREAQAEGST
Method: as §1, §2, §3, §4, §5, §6, §7, §8, §9, §10, §11, §12, §13, §14, §15, §16, §17, §18, §19

CYP17A1 [2] = target: T2, CYP17A1; assay: Ligand binding assay (UV-visible difference spectra titration)
Method: (§20) (Adapted from DeVore, et al.)[25] Ligand interaction with the heme iron was evaluated by titrating ligands into a cuvette containing purified CYP17A1[14], CYP2D6 L230D/L231R[26], or CYP3A4[27] and measured using a UV-visible scanning spectrophotometer. Enzyme was diluted to 0.2 µM in 100 mM potassium phosphate buffer (pH 7.4), 20% glycerol, and 100 mM sodium chloride and divided equally between two 5 mL cuvettes to evaluate high-affinity binding. Ligands dissolved in dimethylsulfoxide (DMSO) were added to the sample cuvette and an equal volume of DMSO to the reference cuvette. Difference spectra were recorded from 300 to 500 nm after equilibration of enzyme and ligand. Binding to the enzyme was measured as the difference in maximal and minimal absorbance: A387—A419 for pregnanolone and 3-formyl pregnanolone, and A435—A393 for compound 1 with CYP17A1; A434—A414 for compound 1 with CYP3A4 and CYP2D6. The dissociation constant and maximum spectral change were calculated using tight-binding or quadratic equation. All data fitting was accomplished using GraphPad Prism 9. Details of fitting are provided in Supplementary Information, and numerical data used to generate graphs in Figs. 2, 4 and 5 are provided in Supplementary Data 3 in Excel format.

CYP2D6 L230D/L231R = target: T3, CYP2D6 L230D/L231R (Homo sapiens, UniProt P10635, L230D/L231R); assay: as above
T3 construct: made in house
Method: as §20

[3] = CYP2D6/20-(R)-1 complex reduced by sodium dithionite
[4] = CYP17A1/20-(R)-1 complex reduced by sodium dithionite

T1 sequence (P10635 whole entry L230D/L231R): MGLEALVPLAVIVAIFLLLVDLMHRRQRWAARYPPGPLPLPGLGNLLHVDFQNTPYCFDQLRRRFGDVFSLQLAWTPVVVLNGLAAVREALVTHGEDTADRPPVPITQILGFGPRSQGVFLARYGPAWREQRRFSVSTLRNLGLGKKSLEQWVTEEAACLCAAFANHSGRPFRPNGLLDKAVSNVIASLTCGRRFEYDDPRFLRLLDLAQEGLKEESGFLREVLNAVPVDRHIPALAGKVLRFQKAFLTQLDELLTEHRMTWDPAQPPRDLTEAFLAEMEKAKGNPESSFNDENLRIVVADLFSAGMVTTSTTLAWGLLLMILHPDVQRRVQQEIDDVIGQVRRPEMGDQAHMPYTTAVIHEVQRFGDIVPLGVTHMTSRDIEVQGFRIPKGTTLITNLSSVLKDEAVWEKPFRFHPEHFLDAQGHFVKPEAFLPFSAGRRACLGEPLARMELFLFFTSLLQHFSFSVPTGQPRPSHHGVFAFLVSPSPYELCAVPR
T3 sequence (P10635 whole entry L230D/L231R): as above

## [C-]#[N+][C@H](C)[C@H]1CC[C@H]2[C@@H]3CC[C@H]4C[C@@H](OC=O)CC[C@]4(C)[C@H]3CC[C@]12C [Compound 1, 3β-formyl-5α-pregnanolone-(R)-20-isonitrile]
CYP2D6; CYP2D6/20-(R)-1
  Soret peak after reoxidation in air: ~ 435 nm and 437 nm
CYP2D6; CYP2D6/20-(R)-1, same time period
  reoxidation of reduced complex in air: re-oxidizes in air
CYP2D6; [3]
  split Soret after reduction, higher-wavelength maximum: 455 nm
  split Soret after reduction, lower-wavelength maximum: 431 nm
CYP17A1 [1]; CYP17A1/20-(R)-1, in air over 105 min
  reoxidation of reduced complex in air: largely resistant to re-oxidation; also recorded: little reoxidation
CYP17A1 [1]; [4]
  split Soret after reduction, higher-wavelength maximum: 454 nm
  split Soret after reduction, lower-wavelength maximum: 430 nm and 429.5 nm
CYP17A1 [2]; 2:1 mixture of C20 epimers of 1
  Soret peak shift in difference spectra: 430 nm
CYP17A1 [2]; ferric CYP17A1, 430 nm = Fe—C isonitrile bond, 424 nm = type II Fe—N
  Soret peak after titration (heme spectral shift from 417 nm water-bound): 430 nm
CYP17A1 [2]; protein 200 nM, 95% CI undefined to 1.7 nM
  dissociation constant estimate (tight binding equation fit): 149 aM
CYP2D6 L230D/L231R; CYP2D6 versus CYP17A1
  dissociation constant for CYP2D6 relative to CYP17A1: 3 million
CYP2D6 L230D/L231R; protein 200 nM, 5 cm cuvette, n = 2, 95% CI undefined –6.4 nM, read-out: dissociation constant (Kd)
  Kd: 0.49 nM and ~0.49 nM
CYP2D6 L230D/L231R; titration of CYP2D6
  Fe—CN—R bond formation on titration: indicated the formation of the Fe—CN—R bond
